pIC50: −log10 of the molar value.

The target of the test is T1, GlyT1 transporter (Homo sapiens, UniProt P48067).
T1 construct: endogenously expressing the GlyT1 transporter; host or cells: SK-N-MC human neuroblastoma cells
T1 sequence (P48067 1-706): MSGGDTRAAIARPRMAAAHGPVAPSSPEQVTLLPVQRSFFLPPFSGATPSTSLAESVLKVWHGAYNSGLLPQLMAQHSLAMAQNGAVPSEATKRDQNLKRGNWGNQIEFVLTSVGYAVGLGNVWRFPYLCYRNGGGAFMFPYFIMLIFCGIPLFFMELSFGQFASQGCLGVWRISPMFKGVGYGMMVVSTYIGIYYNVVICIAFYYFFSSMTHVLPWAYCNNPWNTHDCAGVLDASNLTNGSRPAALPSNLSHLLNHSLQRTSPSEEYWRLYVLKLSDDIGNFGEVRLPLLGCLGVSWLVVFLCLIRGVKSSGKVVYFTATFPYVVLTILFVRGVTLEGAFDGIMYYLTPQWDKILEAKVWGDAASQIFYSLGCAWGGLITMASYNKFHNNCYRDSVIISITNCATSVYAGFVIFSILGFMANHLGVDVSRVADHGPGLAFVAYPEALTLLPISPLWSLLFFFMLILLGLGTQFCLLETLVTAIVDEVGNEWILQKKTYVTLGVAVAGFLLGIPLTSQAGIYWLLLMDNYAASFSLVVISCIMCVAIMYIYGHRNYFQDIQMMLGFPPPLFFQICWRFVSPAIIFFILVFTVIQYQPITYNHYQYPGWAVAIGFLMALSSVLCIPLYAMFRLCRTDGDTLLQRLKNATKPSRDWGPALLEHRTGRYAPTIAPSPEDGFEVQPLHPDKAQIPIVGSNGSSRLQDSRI
In words: GlyT1 assay: 3H-glycine uptake into SK-N-MC cells (Cytostar-T format). The class given is cell-based. The following applies: glycine uptake in human SK-N-MC cells endogenously expressing GlyT1; 500 nM glycine, 1% DMSO, signal recorded over 60 min. An outline of the steps:
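Endogenous GlyT1 in human SK-N-MC cells, confluent after 16-18 h, in HBSS with 5 mM alanine. Compounds preincubated about 5-10 min, then 500 nM glycine (half ³H) added, 1% DMSO. Scintillation-proximity uptake recorded kinetically over 60 min; IC50 from linear-range slopes over 8 concentrations, nonspecific uptake defined with 10 μM RG-1678.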
Compound `C[C@@H](Oc1ccc(S(C)(=O)=O)cc1C(=O)N1CC2CC2(c2ncc(C(F)(F)F)o2)C1)C(F)(F)F` (single isomer, unassigned) [Example 129, [5-Methanesulfonyl-2-(2,2,2-trifluoro-1-methyl-ethoxy)-phenyl]-[1-(5-trifluoromethyl-oxazol-2-yl)-3-aza-bicyclo[3.1.0]hex-3-yl]-methanone] had a pIC50 of 6.83.

Consider `C[C@@H](Oc1ccc(S(C)(=O)=O)cc1C(=O)N1CC2CC2(c2ncc(C(F)(F)F)o2)C1)C(F)(F)F` (single isomer, unassigned) [Example 130, [5-Methanesulfonyl-2-(2,2,2-trifluoro-1-methyl-ethoxy)-phenyl]-[1-(5-trifluoromethyl-oxazol-2-yl)-3-aza-bicyclo[3.1.0]hex-3-yl]-methanone], for which the negative-log IC50 (pIC50) was 8.52.

For the compound `C[C@H](Oc1ccc(S(C)(=O)=O)cc1C(=O)N1CC2CC2(c2ncc(C(F)(F)F)o2)C1)C(F)(F)F` (single isomer, unassigned) [Example 132, [5-Methanesulfonyl-2-(2,2,2-trifluoro-1-methyl-ethoxy)-phenyl]-[1-(5-trifluoromethyl-oxazol-2-yl)-3-aza-bicyclo[3.1.0]hex-3-yl]-methanone], the negative-log IC50 (pIC50) is 8.52.

Turning to `C[C@H](Oc1ccc(S(C)(=O)=O)cc1C(=O)N1CC2CC2(c2ncc(C(F)(F)F)o2)C1)C(F)(F)F` (single isomer, unassigned) [Example 133, [5-Methanesulfonyl-2-(2,2,2-trifluoro-1-methyl-ethoxy)-phenyl]-[1-(5-trifluoromethyl-oxazol-2-yl)-3-aza-bicyclo[3.1.0]hex-3-yl]-methanone], the negative logarithm of the IC50 (pIC50) was 6.39.

`C[C@H](Oc1ccc(S(C)(=O)=O)cc1C(=O)N1CC2CC2(c2nc(C(F)(F)F)co2)C1)C(F)(F)F` (single isomer, unassigned) [Example 136, [5-Methanesulfonyl-2-(2,2,2-trifluoro-1-methyl-ethoxy)-phenyl]-[1-(4-trifluoromethyl-oxazol-2-yl)-3-aza-bicyclo[3.1.0]hex-3-yl]-methanone] gave a negative-log IC50 (pIC50) of 6.92.

`CS(=O)(=O)c1ccc(O[C@@H]2CCOC2)c(C(=O)N2CC3CC3(c3noc(C(F)(F)F)n3)C2)c1` (single isomer, unassigned) [Example 139, [5-Methanesulfonyl-2-(tetrahydro-furan-3-yloxy)-phenyl]-[1-(5-trifluoromethyl-[1,2,4]oxadiazol-3-yl)-3-aza-bicyclo[3.1.0]hex-3-yl]-methanone] had a pIC50 of 6.60.

`CS(=O)(=O)c1ccc(O[C@@H]2CCOC2)c(C(=O)N2CC3CC3(c3noc(C(F)(F)F)n3)C2)c1` (single isomer, unassigned) [Example 140, [5-Methanesulfonyl-2-(tetrahydro-furan-3-yloxy)-phenyl]-[1-(5-trifluoromethyl-[1,2,4]oxadiazol-3-yl)-3-aza-bicyclo[3.1.0]hex-3-yl]-methanone] gave a pIC50 of 5.52.

In turn, `CC(C)Oc1ccc(S(C)(=O)=O)cc1C(=O)N1CC2CC2(c2noc(C3(C(F)(F)F)CC3)n2)C1` (single isomer, unassigned) [Example 142, (2-Isopropoxy-5-methanesulfonyl-phenyl)-{1-[5-(1-trifluoromethyl-cyclopropyl)-[1,2,4]oxadiazol-3-yl]-3-aza-bicyclo[3.1.0]hex-3-yl}-methanone] showed a negative-log IC50 (pIC50) of 8.52.

For `C[C@H](Oc1ccc(S(C)(=O)=O)cc1C(=O)N1CC2CC2(c2nc(C3CC3)no2)C1)C(F)(F)F` (single isomer, unassigned) [Example 143, [1-(3-Cyclopropyl-[1,2,4]oxadiazol-5-yl)-3-aza-bicyclo[3.1.0]hex-3-yl]-[5-methanesulfonyl-2-(2,2,2-trifluoro-1-methyl-ethoxy)-phenyl]-methanone], the pIC50 is 8.15.

Take `C[C@H](Oc1ccc(S(C)(=O)=O)cc1C(=O)N1CC2CC2(c2nc(C3CC3)no2)C1)C(F)(F)F` (single isomer, unassigned) [Example 144, [1-(3-Cyclopropyl-[1,2,4]oxadiazol-5-yl)-3-aza-bicyclo[3.1.0]hex-3-yl]-[5-methanesulfonyl-2-(2,2,2-trifluoro-1-methyl-ethoxy)-phenyl]-methanone]: the negative logarithm of the IC50 (pIC50) was 6.79.

As to `C[C@@H](Oc1ccc(S(C)(=O)=O)cc1C(=O)N1CC2CC2(c2nnc(C3(C(F)(F)F)CC3)o2)C1)C(F)(F)F` (single isomer, unassigned) [Example 149, [5-Methanesulfonyl-2-(2,2,2-trifluoro-1-methyl-ethoxy)-phenyl]-{1-[5-(1-trifluoromethyl-cyclopropyl)-[1,3,4]oxadiazol-2-yl]-3-aza-bicyclo[3.1.0]hex-3-yl}-methanone], the pIC50 is 8.10.

Consider `C[C@@H](Oc1ccc(S(C)(=O)=O)cc1C(=O)N1CC2CC2(c2nnc(C3(C(F)(F)F)CC3)o2)C1)C(F)(F)F` (single isomer, unassigned) [Example 150, [5-Methanesulfonyl-2-(2,2,2-trifluoro-1-methyl-ethoxy)-phenyl]-{1-[5-(1-trifluoromethyl-cyclopropyl)-[1,3,4]oxadiazol-2-yl]-3-aza-bicyclo[3.1.0]hex-3-yl}-methanone], for which the pIC50 is 6.63.

`C[C@H](Oc1ccc(S(C)(=O)=O)cc1C(=O)N1CC2CC2(c2nnc(C3(C(F)(F)F)CC3)o2)C1)C(F)(F)F` (single isomer, unassigned) [Example 152, [5-Methanesulfonyl-2-(2,2,2-trifluoro-1-methyl-ethoxy)-phenyl]-{1-[5-(1-trifluoromethyl-cyclopropyl)-[1,3,4]oxadiazol-2-yl]-3-aza-bicyclo[3.1.0]hex-3-yl}-methanone]: the negative-log IC50 (pIC50) is 8.00.

With `C[C@H](Oc1ccc(S(C)(=O)=O)cc1C(=O)N1CC2CC2(c2nnc(C3(C(F)(F)F)CC3)o2)C1)C(F)(F)F` (single isomer, unassigned) [Example 153, [5-Methanesulfonyl-2-(2,2,2-trifluoro-1-methyl-ethoxy)-phenyl]-{1-[5-(1-trifluoromethyl-cyclopropyl)-[1,3,4]oxadiazol-2-yl]-3-aza-bicyclo[3.1.0]hex-3-yl}-methanone], the negative logarithm of the IC50 (pIC50) was 5.92.

In the case of `C[C@H](Oc1ccc(S(C)(=O)=O)cc1C(=O)N1CC2(C)CC2(c2noc(C(F)(F)F)n2)C1)C(F)(F)F` (single isomer, unassigned) [Example 158, [5-Methanesulfonyl-2-(2,2,2-trifluoro-1-methyl-ethoxy)-phenyl]-[1-methyl-5-(5-trifluoromethyl-[1,2,4]oxadiazol-3-yl)-3-aza-bicyclo[3.1.0]hex-3-yl]-methanone], the pIC50 was 7.07.

`C[C@H](Oc1ccc(S(C)(=O)=O)cc1C(=O)N1CC2(C)CC2(c2noc(C(F)(F)F)n2)C1)C(F)(F)F` (single isomer, unassigned) [Example 159, [5-Methanesulfonyl-2-(2,2,2-trifluoro-1-methyl-ethoxy)-phenyl]-[1-methyl-5-(5-trifluoromethyl-[1,2,4]oxadiazol-3-yl)-3-aza-bicyclo[3.1.0]hex-3-yl]-methanone] showed a pIC50 of 6.02.

For `Cc1c(C23CC2CN(C(=O)c2cc(S(C)(=O)=O)ccc2O[C@H](C)C(F)(F)F)C3)noc1C(F)(F)F` (single isomer, unassigned) [Example 161], the negative-log IC50 (pIC50) is 8.05.

`Cc1c(C23CC2CN(C(=O)c2cc(S(C)(=O)=O)ccc2O[C@H](C)C(F)(F)F)C3)noc1C(F)(F)F` (single isomer, unassigned) [Example 162] had a negative logarithm of the IC50 (pIC50) of 6.41.

As for `Cc1c(C23CC2CN(C(=O)c2cc(S(C)(=O)=O)ccc2O[C@@H](C)C(F)(F)F)C3)noc1C(F)(F)F` (single isomer, unassigned) [Example 164], the negative logarithm of the IC50 (pIC50) was 7.55.

Turning to `Cc1c(C23CC2CN(C(=O)c2cc(S(C)(=O)=O)ccc2O[C@@H](C)C(F)(F)F)C3)noc1C(F)(F)F` (single isomer, unassigned) [Example 165], the negative logarithm of the IC50 (pIC50) was 6.40.

Compound `CC(Oc1ccc(C#N)cc1C(=O)N1CC2CC2(c2noc(C(F)(F)F)n2)C1)C(F)(F)F` (stereo not drawn) [Example 39, 4-(2,2,2-Trifluoro-1-methyl-ethoxy)-3-[1-(5-trifluoromethyl-[1,2,4]oxadiazol-3-yl)-3-aza-bicyclo[3.1.0]hexane-3-carbonyl]-benzonitrile] had a pIC50 of 6.84.

The values are drawn from patent US9012489B2, “Phenyl-3-aza-bicyclo[3.1.0]hex-3-yl-methanones and the use thereof as medicament” (Boehringer Ingelheim International GmbH, priority 2011, dated 2015).
